Measured values from patent US9642889B2, “Macrocyclic inhibitors of Flaviviridae viruses” (Selcia Limited, priority 2012, dated 2017).
Where two headings read alike, the source gives them in different places.

What was measured:
[1] = from C=CCC(=O)O[C@H](C(=O)N[C@@H](C)C(=O)N1CCC[C@@H](C(=O)N[C@H](C)c2ccc3cnc(C=C)cc3c2)N1)C(C)C; rcm bond; Hoveyda-Grubbs 2nd generation; toluene; 2.83 mM; 110.0 °C; 5.0 h
cyclophilin A = cyclophilin A (Homo sapiens, UniProt P62937); assay: Cyclophilin A TR-FRET competitive binding assay; conditions: competition with CsA-Cy5 for His-tagged CypA, two-hour incubation
cyclophilin A, sequence (P62937 whole entry, species assumed): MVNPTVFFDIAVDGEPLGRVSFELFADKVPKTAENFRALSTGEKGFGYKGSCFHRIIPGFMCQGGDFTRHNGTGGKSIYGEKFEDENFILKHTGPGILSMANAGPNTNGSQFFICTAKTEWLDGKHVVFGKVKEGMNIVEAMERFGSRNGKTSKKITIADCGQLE
Procedure: Cyclophilin A TR-FRET Competitive Binding Assay
Inhibitor potency was measured using a competitive binding assay with a time-resolved fluorescence resonance energy transfer (TR-FRET) readout. […] An IC50 value was calculated using a four-parameter logistic fit.

[2] = test system: Huh-7 HCV replicon cells (1b replicon); assay: anti-HCV activity in Huh-7 cell line harboring a HCV replicon (luciferase readout); format: cell-based; conditions: Hepatitis C virus; for EC50: Huh-7, 72 h
[3] = inhibition of viral replication, Huh-7 HCV replicon cells, 3 days, read-out: EC50
[4] = Huh-7, read-out: Replicon 1b % inhibition at 1 μM, 1b replicon, 1 μM compound

Row | SMILES | ring closure, yield of all isomers [1] | IC50 (cyclophilin A) | EC50 [2, 3] | inhibition at 1 µM [2, 4] | EC50 [2] | inhibition at 1 µM ([2]; Huh-7, read-out: Replicon 1b % inhibition at 1 μM)
1 | CC(C)[C@@H]1OC(=O)CC=Cc2cc3cc(ccc3cn2)[C@@H](C)NC(=O)[C@@H]2CCCN(N2)C(=O)[C@H](C)NC1=O | 1% |  |  |  |  | 
2 | CC(F)[C@@H]1OC(=O)C(C)(C)/C=C/c2ccc3ccc(nc3c2)[C@@H](C)NC(=O)[C@@H]2CCCN(N2)C(=O)[C@H](C)NC1=O (stereo partly shown) [Compound 68] |  | < 100 nM | < 1000 nM | 93% |  | 
3 | C[C@@H]1NC(=O)[C@H](C(C)(C)C)OC(=O)C(C)(C)/C=C/c2ccc3ccc(nc3c2)[C@@H](C)NC(=O)[C@@H]2CCCN(N2)C1=O [Compound 70] |  | 1000 to 10000 nM | < 1000 nM | 57% |  | 
4 | CC([C@@H]1OC(=O)C(C)(C)/C=C/c2ccc3ccc(nc3c2)[C@@H](C)NC(=O)[C@@H]2CCCN(N2)C(=O)[C@H](C)NC1=O)C(F)(F)F (stereo partly shown) [Compound 71] |  | < 100 nM | < 1000 nM | 96% |  | 
5 | C[C@@H]1NC(=O)[C@H](C(C)(C)F)OC(=O)C2(/C=C/c3ccc4ccc(nc4c3)[C@@H](C)NC(=O)[C@@H]3CCCN(N3)C1=O)COCOC2 [Compound 72] |  | 1000 to 10000 nM | 1100 to 10000 nM | -6% |  | 
6 | CC(C)[C@@H]1OC(=O)C2(/C=C/c3ccc4ccc(nc4c3)[C@@H](C)NC(=O)[C@@H]3CCCN(N3)C(=O)[C@H](C)NC1=O)CCOC2 (stereo partly shown) [Compound 73] |  | < 100 nM | < 1000 nM | 97% |  | 
7 | C[C@@H]1NC(=O)[C@H](C2CC2)OC(=O)C(C)(C)/C=C/c2ccc3ccc(nc3c2)[C@@H](C)NC(=O)[C@@H]2CCCN(N2)C1=O [Compound 78] |  | < 100 nM | < 1000 nM | 99% |  | 
8 | C[C@@H]1NC(=O)[C@@H](C2CC2)OC(=O)C(C)(C)/C=C/c2ccc3ccc(nc3c2)[C@@H](C)NC(=O)[C@@H]2CCCN(N2)C1=O [Compound 79] |  | 1000 to 10000 nM | 1100 to 10000 nM | 3% |  | 
9 | CC(C)C(=O)O[C@H]1CC[C@@]2(/C=C/c3ccc4ccc(nc4c3)[C@@H](C)NC(=O)[C@@H]3CCCN(N3)C(=O)[C@H](C)NC(=O)[C@H](C(C)C)OC2=O)CC1 [Compound 80] |  | < 100 nM | < 1000 nM | 99% |  | 
10 | CC(C)C(=O)O[C@H]1CC[C@]2(/C=C/c3ccc4ccc(nc4c3)[C@@H](C)NC(=O)[C@@H]3CCCN(N3)C(=O)[C@H](C)NC(=O)[C@H](C(C)C)OC2=O)CC1 [Compound 81] |  | < 100 nM | < 1000 nM | 100% |  | 
11 | CCCC(=O)O[C@H]1CC[C@]2(/C=C/c3ccc4ccc(nc4c3)[C@@H](C)NC(=O)[C@@H]3CCCN(N3)C(=O)[C@H](C)NC(=O)[C@H](C(C)C)OC2=O)CC1 [Compound 82] |  | < 100 nM | < 1000 nM | 99% |  | 
12 | CON=C1CCC2(/C=C/c3ccc4ccc(nc4c3)[C@@H](C)NC(=O)[C@@H]3CCCN(N3)C(=O)[C@H](C)NC(=O)[C@H](C(C)C)OC2=O)CC1 (stereo partly shown) [Compound 83] |  | < 100 nM | < 1000 nM | 100% |  | 
13 | CC(C)[C@@H]1OC(=O)C2(/C=C/c3ccc4ccc(nc4c3)[C@@H](C)NC(=O)[C@@H]3CCCN(N3)C(=O)[C@H](C)NC1=O)CCN(C(=O)OC(C)(C)C)CC2 [Compound 84] |  | 1000 to 10000 nM | 1100 to 10000 nM | 10% |  | 
14 | CC(C)[C@@H]1OC(=O)C2(/C=C/c3ccc4ccc(nc4c3)[C@@H](C)NC(=O)[C@@H]3CCCN(N3)C(=O)[C@H](C)NC1=O)CCN(S(C)(=O)=O)CC2 [Compound 85] |  | < 100 nM | < 1000 nM | 98% |  | 
15 | C[C@@H]1NC(=O)[C@H]([C@@H](C)OC(C)(C)C)OC(=O)C(C)(C)/C=C/c2ccc3ccc(nc3c2)[C@@H](C)NC(=O)[C@@H]2CCCN(N2)C1=O [Compound 86] |  | 101 to 1000 nM | < 1000 nM | 93% |  | 
16 | C[C@@H]1NC(=O)[C@H]([C@@H](C)O)OC(=O)C(C)(C)/C=C/c2ccc3ccc(nc3c2)[C@@H](C)NC(=O)[C@@H]2CCCN(N2)C1=O [Compound 87] |  | < 100 nM | < 1000 nM | 61% |  | 

Row | SMILES | ring closure, yield of all isomers [1] | IC50 (cyclophilin A) | EC50 [2, 3] | inhibition at 1 µM [2, 4] | EC50 [2] | inhibition at 1 µM ([2]; Huh-7, read-out: Replicon 1b % inhibition at 1 μM)
17 | CC(C)[C@@H]1OC(=O)C2(/C=C/c3ccc4ccc(nc4c3)[C@@H](C)NC(=O)[C@@H]3CCCN(N3)C(=O)[C@H](C)NC1=O)CCC(C)(O)CC2 (stereo partly shown) [Compound 89] |  | < 100 nM | < 1000 nM | 82% |  | 
18 | CC(C)[C@@H]1OC(=O)[C@@]2(/C=C/c3ccc4ccc(nc4c3)[C@@H](C)NC(=O)[C@@H]3CCCN(N3)C(=O)[C@H](C)NC1=O)CCOC(C)(C)C2 [Compound 90] |  | < 100 nM | < 1000 nM | 99% |  | 
19 | CC(C)[C@@H]1OC(=O)[C@]2(/C=C/c3ccc4ccc(nc4c3)[C@@H](C)NC(=O)[C@@H]3CCCN(N3)C(=O)[C@H](C)NC1=O)CCOC(C)(C)C2 [Compound 91] |  | < 100 nM | < 1000 nM | 100% |  | 
20 | C[C@@H]1NC(=O)[C@H](C2CC2)OC(=O)C2(/C=C/c3ccc4ccc(nc4c3)[C@@H](C)NC(=O)[C@@H]3CCCN(N3)C1=O)COCCOC2 [Compound 93] |  | < 100 nM | < 1000 nM | 98% |  | 
21 | C[C@@H]1NC(=O)[C@H](C2COC2)OC(=O)C(C)(C)/C=C/c2ccc3ccc(nc3c2)[C@@H](C)NC(=O)[C@@H]2CCCN(N2)C1=O [Compound 95] |  | < 100 nM | < 1000 nM | 88% |  | 
22 | CCN1CCOC2(/C=C/c3ccc4ccc(nc4c3)[C@@H](C)NC(=O)[C@@H]3CCCN(N3)C(=O)[C@H](C)NC(=O)[C@H](C(C)C)OC2=O)C1 (stereo partly shown) [Compound 96] |  | < 100 nM |  |  | < 1000 nM | 91%
23 | CC(C)[C@@H]1OC(=O)C2(/C=C/c3ccc4ccc(nc4c3)[C@@H](C)NC(=O)[C@@H]3CCCN(N3)C(=O)[C@H](C)NC1=O)CN(S(C)(=O)=O)CCO2 (stereo partly shown) [Compound 97] |  | < 100 nM | < 1000 nM | 96% |  | 
24 | CC(C)[C@@H]1OC(=O)C2(/C=C/c3ccc4ccc(nc4c3)[C@@H](C)NC(=O)[C@@H]3CCCN(N3)C(=O)[C@H](C)NC1=O)COC(=O)OC2 [Compound 98] |  | < 100 nM | < 1000 nM | 90% |  | 
25 | CC(C)[C@@H]1OC(=O)C(CF)(CF)/C=C/c2ccc3ccc(nc3c2)[C@@H](C)NC(=O)[C@@H]2CCCN(N2)C(=O)[C@H](C)NC1=O [Compound 99] |  | < 100 nM | < 1000 nM | 100% |  | 
26 | C[C@@H]1NC(=O)[C@H](C2CC2)OC(=O)C2(/C=C/c3ccc4ccc(nc4c3)[C@@H](C)NC(=O)[C@@H]3CCCN(N3)C1=O)CCC(O)C2 (stereo partly shown) [Compound 102] |  | < 100 nM | 1100 to 10000 nM | 13% |  | 
27 | CC(C)[C@@H]1OC(=O)C2(/C=C/c3ccc4ccc(nc4c3)[C@@H](C)NC(=O)[C@@H]3CCCN(N3)C(=O)[C@H](C)NC1=O)COC(CF)(CF)OC2 [Compound 107] |  | < 100 nM | < 1000 nM | 100% |  | 
28 | CCCC(=O)O[C@H]1CC[C@@]2(/C=C/c3ccc4ccc(nc4c3)[C@@H](C)NC(=O)[C@@H]3CCCN(N3)C(=O)[C@H](C)NC(=O)[C@H](C(C)C)OC2=O)CC1 [Compound 108] |  | < 100 nM | < 1000 nM | 99% |  | 
29 | CCC(=O)O[C@H]1CC[C@@]2(/C=C/c3ccc4ccc(nc4c3)[C@@H](C)NC(=O)[C@@H]3CCCN(N3)C(=O)[C@H](C)NC(=O)[C@H](C(C)C)OC2=O)CC1 [Compound 109] |  | < 100 nM | < 1000 nM | 99% |  | 
30 | CC(=O)O[C@H]1CC[C@@]2(/C=C/c3ccc4ccc(nc4c3)[C@@H](C)NC(=O)[C@@H]3CCCN(N3)C(=O)[C@H](C)NC(=O)[C@H](C(C)C)OC2=O)CC1 [Compound 110] |  | < 100 nM | < 1000 nM | 100% |  | 
31 | CCC(=O)O[C@H]1CC[C@]2(/C=C/c3ccc4ccc(nc4c3)[C@@H](C)NC(=O)[C@@H]3CCCN(N3)C(=O)[C@H](C)NC(=O)[C@H](C(C)C)OC2=O)CC1 [Compound 111] |  | < 100 nM | < 1000 nM | 99% |  | 
32 | CC(=O)O[C@H]1CC[C@]2(/C=C/c3ccc4ccc(nc4c3)[C@@H](C)NC(=O)[C@@H]3CCCN(N3)C(=O)[C@H](C)NC(=O)[C@H](C(C)C)OC2=O)CC1 [Compound 112] |  | < 100 nM | < 1000 nM | 100% |  | 
